Measured values: patent US20070054899A1 (priority 2003, published 2007)
Read-outs that look alike come from different tables or passages of the source.

What was measured:
[1] = test system: uterine hypertrophy induced by androstenedione; assay: Activity in vivo: inhibition of uterine hypertrophy induced by androstenedione; parameters: species or system rat (Sprague-Dawley); conditions: Rattus norvegicus, 96 h, immature female rats, androstenedione 30 mg/kg for 4 days, read-out: % inhibition to doses (μg/Kg); for inhibition in vivo at 0.01 mg/kg: dose 10 μg/Kg; for inhibition in vivo at 0.1 mg/kg: dose 100 μg/Kg; for inhibition in vivo at 1 mg/kg: dose 1000 μg/Kg; for inhibition in vivo at 0.001 mg/kg: dose 1 μg/Kg
Method: The activity in vivo of aromatase inhibition by compounds of formula (I) according to the invention has been tested according to the model established by Bharnagar et al. (1990).
In general, immature female rats of the Sprague-Dawley line of a weight ranging from 40 to 50 g have been treated with a dose of androstenedione at 30 mg/kg for 4 days, in the absence or in the presence of doses of various compounds of formula (I).
Four hours after administration of an aromatase inhibitor, the rats were sacrificed. Their uteruses were removed, cleared of adhering fat and conjunctive tissue, next the uteruses were weighed (wet weight). The dry weight of the uteruses was determined the following day after a step of drying for one night at 80° C.

[2] = target: T1, aromatase (microsomes from the human placenta) (Homo sapiens, UniProt P11511); assay: Aromatase inhibition in vitro, tritiated water method, human placenta microsomes; format: biochemical
T1 construct: using microsomes from the human placenta as source of the enzyme; from tissue; host or cells: human placenta microsomes
T1 sequence (P11511 1-503): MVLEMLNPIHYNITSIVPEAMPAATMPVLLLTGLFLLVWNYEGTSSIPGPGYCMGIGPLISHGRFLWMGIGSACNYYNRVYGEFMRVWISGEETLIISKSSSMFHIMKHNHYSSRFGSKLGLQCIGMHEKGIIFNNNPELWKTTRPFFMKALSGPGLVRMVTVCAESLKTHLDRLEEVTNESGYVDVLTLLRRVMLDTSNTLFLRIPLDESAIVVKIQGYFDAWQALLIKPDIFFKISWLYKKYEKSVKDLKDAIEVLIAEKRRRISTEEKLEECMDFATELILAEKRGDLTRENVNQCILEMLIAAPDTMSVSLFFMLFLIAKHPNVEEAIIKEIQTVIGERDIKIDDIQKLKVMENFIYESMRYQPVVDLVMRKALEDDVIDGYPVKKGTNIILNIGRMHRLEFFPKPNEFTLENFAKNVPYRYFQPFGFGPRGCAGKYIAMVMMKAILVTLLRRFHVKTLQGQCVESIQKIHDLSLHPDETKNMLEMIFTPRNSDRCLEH

aromatase (e) = aromatase (e) (UniProt O46512); format: biochemical; conditions: value marked (e); read-out: Activity In vitro IC50(nM), (e)
aromatase (e), sequence (O46512 whole entry): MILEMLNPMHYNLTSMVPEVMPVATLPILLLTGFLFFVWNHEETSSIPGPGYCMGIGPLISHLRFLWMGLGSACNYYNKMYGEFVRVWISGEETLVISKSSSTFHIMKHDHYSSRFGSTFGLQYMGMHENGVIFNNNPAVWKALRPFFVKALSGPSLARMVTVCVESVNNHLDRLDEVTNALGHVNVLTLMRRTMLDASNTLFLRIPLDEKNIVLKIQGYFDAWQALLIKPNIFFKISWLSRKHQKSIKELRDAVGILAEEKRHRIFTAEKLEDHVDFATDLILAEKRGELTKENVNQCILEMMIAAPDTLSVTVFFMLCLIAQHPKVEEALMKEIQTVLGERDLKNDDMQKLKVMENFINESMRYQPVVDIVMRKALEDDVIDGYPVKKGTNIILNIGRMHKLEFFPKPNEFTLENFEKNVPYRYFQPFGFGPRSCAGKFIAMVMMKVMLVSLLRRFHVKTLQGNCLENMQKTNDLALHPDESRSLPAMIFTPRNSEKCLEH

[3] = value marked (h), read-out: Activity In vitro IC50(nM), (h)
[4] = value without (h)/(e) mark, read-out: Activity In vitro IC50

IC50 [2, 4] [nM]	melting point [°C]	Structure (SMILES)	inhibition in vivo at 0.01 mg/kg [1] [%]	inhibition in vivo at 0.1 mg/kg [1] [%]	inhibition in vivo at 1 mg/kg [1] [%]	IC50 [2, 3] [nM]	IC50 (aromatase (e)) [nM]	inhibition in vivo at 0.001 mg/kg [1] [%]
		Cn1c(=O)oc2cc(C(c3cccc(C#N)c3)n3ccnc3)ccc21 (stereo not drawn) [PC122]	39	58	92	18.6	23.2	
5.51	125 to 127	CCn1c(=O)sc2ccc(C(c3ccc(C#N)cc3)n3cncn3)cc21 (stereo not drawn) [PCH246, 4-[(3-Ethyl-2-oxo-2,3-dihydro-1,3-benzothiazol-5-yl)(1H-1,2,4-triazol-1-yl)methyl]benzonitrile]	45	91				22
		O=c1[nH]c2cc(C(c3ccccc3)n3ccnc3)ccc2o1 (stereo not drawn) [PCH124, 5-[1H-Imidazol-1-yl(phenyl)methyl]-1,3-benzoxazol-2(3H)-one]	34	71	92	14.9	14.1	
3.7	79 to 82	CCn1c(=O)[se]c2cc(C(c3ccc([N+](=O)[O-])cc3)n3cncn3)ccc21 (stereo not drawn) [PCH305, 3-Ethyl-6-[(4-nitrophenyl)(1H-1,2,4-triazol-1-yl)methyl]-1,3-benzoselenazol-2(3H)-one]						
		O=c1[nH]c2ccc(C(c3ccccc3)n3ccnc3)cc2o1 (stereo not drawn) [PCH10, 6-[1H-Imidazol-1-yl(phenyl)methyl]-1,3-benzoxazol-2(3H)-one]				84.6	103	
3.64	190 to 195	Cn1c(=O)[se]c2cc(C(c3ccc([N+](=O)[O-])cc3)n3cncn3)ccc21 (stereo not drawn) [PCH304, 3-Methyl-6-[(4-nitrophenyl)(1H-1,2,4-triazol-1-yl)methyl]-1,3-benzoselenazol-2(3H)-one]						
		N#Cc1ccc(C(c2ccc3[nH]c(=O)oc3c2)n2ccnc2)cc1 (stereo not drawn) [PCH113, 6-[(4-Cyanophenyl)(1H-imidazol-1-yl)methyl]-1,3-benzoxazol-2(3H)-one]	19	50	94	13.2	14.6	
		Cn1c(=O)oc2cc(C(c3cccnc3)n3ccnc3)ccc21 (stereo not drawn) [PCH116]				33.7	34.6	
		Cn1c(=O)oc2cc(C(c3ccc(C#N)cc3)n3ccnc3)ccc21 (stereo not drawn) [PCH27]				4.62	72	
5.78	122 to 125	Cn1c(=O)sc2ccc(C(c3ccc(C#N)cc3)n3cncn3)cc21 (stereo not drawn) [PCH163, 4-[(3-Methyl-2-oxo-2,3-dihydro-1,3-benzothiazol-5-yl)(1H-1,2,4-triazol-1-yl)methyl]benzonitrile]	83	95				57
		Cn1c(=O)oc2cc(C(c3ccncc3)n3ccnc3)ccc21 (stereo not drawn) [PCH30]				38	477	
		N#Cc1cccc(C(c2ccc3[nH]c(=O)oc3c2)n2ccnc2)c1 (stereo not drawn) [PCH119]				25.1	27.7	

Structure (SMILES)	IC50 [2, 4] [nM]	melting point [°C]	inhibition in vivo at 0.01 mg/kg [1] [%]	inhibition in vivo at 0.1 mg/kg [1] [%]	inhibition in vivo at 1 mg/kg [1] [%]	IC50 [2, 3] [nM]	IC50 (aromatase (e)) [nM]	inhibition in vivo at 0.001 mg/kg [1] [%]
CCn1c(=O)[se]c2cc(C(c3ccc(C#N)cc3)n3cncn3)ccc21 (stereo not drawn) [PC11303, 4-[(3-Ethyl-2-oxo-2,3-dihydro-1,3-benzoselenazol-6-yl)(1H-1,2,4-triazol-1-yl)methyl]benzonitrile]	3.99	95 to 98	60	71				38
N#Cc1ccc(C(c2ccc3[nH]c(=O)[se]c3c2)n2cncn2)cc1 (stereo not drawn) [PCH302, 4-[(2-oxo-2,3-dihydro-1,3-benzoselenazol-6-yl)(1H-1,2,4-triazol-1-yl)methyl]benzonitrile]	6.53	223 to 226	20	63				45
Cn1c(=O)[se]c2cc(C(c3ccc(C#N)cc3)n3cncn3)ccc21 (stereo not drawn) [PCH300, 4-[(3-Methyl-2-oxo-2,3-dihydro-1,3-benzoselenazol-6-yl)(1H-1,2,4-triazol-1-yl)methyl]benzonitrile]	4.64	154 to 158	86	91				49
